Laboratory results reported in PubChem BioAssay AID248 (DTP/NCI, 2004).
Values joined by “and” are separate entries in the source; they are usually repeats but may differ in a detail not shown here. Equal entries are not always repeated. Toxic doses and inconclusive results are not listed. Rule as the data show it: active = T/C of 150% or more; inactive = T/C below 125%. Square brackets hold non-standard residues; d marks the D form. Peptide text beside a SMILES is read from it. ξ: configuration not given here. ξF = NC(Cc1ccccc1)C(=O)O

Test system: L1210 leukemia ip in BDF1 mice, survival T/C
Test: NCI In Vivo Anticancer Drug Screen. Data for tumor model L1210 Leukemia (intraperitoneal) in B6D2F1 (BDF1) mice
Conditions: endpoint: mean survival time, higher = longer survival
Outline: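 Transplanted-tumor mice were given test agent; controls received vehicle only. Survival readings from the two groups were divided (treated over control).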

[1] = dose: 100.0 mg/kg/injection, schedule: Q01DX009 (ip), vehicle: Klucel (hydroxypropylcellulose) (HPC)
[2] = dose: 200.0 mg/kg/injection, schedule: Q01DX009 (ip), vehicle: Klucel (hydroxypropylcellulose) (HPC)
[3] = dose: 400.0 mg/kg/injection, schedule: Q01DX009 (ip), vehicle: Klucel (hydroxypropylcellulose) (HPC)
[4] = dose: 100.0 mg/kg/injection, schedule: Q01DX001 (ip), vehicle: carboxymethylcellulose (CMC)
[5] = dose: 400.0 mg/kg/injection, schedule: Q01DX001 (ip), vehicle: carboxymethylcellulose (CMC)
[6] = dose: 100.0 mg/kg/injection, schedule: Q01DX009 (ip), vehicle: saline with Tween-80
[7] = dose: 100.0 mg/kg/injection, schedule: Q04DX003 (ip), vehicle: saline with Tween-80
[8] = dose: 200.0 mg/kg/injection, schedule: Q01DX009 (ip), vehicle: saline with Tween-80
[9] = dose: 200.0 mg/kg/injection, schedule: Q04DX003 (ip), vehicle: saline with Tween-80
[10] = dose: 400.0 mg/kg/injection, schedule: Q04DX003 (ip), vehicle: saline with Tween-80
[11] = dose: 100.0 mg/kg/injection, schedule: Q04DX002 (ip), vehicle: Klucel (hydroxypropylcellulose) (HPC)
[12] = dose: 200.0 mg/kg/injection, schedule: Q04DX002 (ip), vehicle: Klucel (hydroxypropylcellulose) (HPC)
[13] = dose: 400.0 mg/kg/injection, schedule: Q04DX002 (ip), vehicle: Klucel (hydroxypropylcellulose) (HPC)
[14] = dose: 100.0 mg/kg/injection, schedule: Q01DX001 (ip), vehicle: saline
[15] = dose: 200.0 mg/kg/injection, schedule: Q01DX001 (ip), vehicle: saline
[16] = dose: 400.0 mg/kg/injection, schedule: Q01DX001 (ip), vehicle: saline
[17] = dose: 25.0 mg/kg/injection, schedule: Q04DX003 (ip), vehicle: saline
[18] = dose: 50.0 mg/kg/injection, schedule: Q04DX003 (ip), vehicle: saline
[19] = dose: 50.0 mg/kg/injection, schedule: Q01DX001 (ip), vehicle: saline

Measured: T/C

CCCCC(C(=O)O)(c1ccccc1)c1ccccc1
inactive: dose: 75.0 mg/kg/injection, schedule: Q04DX002 (ip), vehicle: gum acacia 96 % of control | dose: 150.0 mg/kg/injection, schedule: Q04DX002 (ip), vehicle: gum acacia 107 % of control

CC(=O)Nc1ccc(Cl)cc1C(=O)O
inactive: [1] 97 % of control | dose: 100.0 mg/kg/injection, schedule: Q04DX003 (ip), vehicle: Klucel (hydroxypropylcellulose) (HPC) 97 % of control | [2] 90 % of control | dose: 200.0 mg/kg/injection, schedule: Q04DX003 (ip), vehicle: Klucel (hydroxypropylcellulose) (HPC) 94 % of control | [3] 93 % of control | dose: 400.0 mg/kg/injection, schedule: Q04DX003 (ip), vehicle: Klucel (hydroxypropylcellulose) (HPC) 102 % of control

Cc1ccc2sc(C)cc(=O)c2c1
inactive: [4] 100 % of control | dose: 200.0 mg/kg/injection, schedule: Q01DX001 (ip), vehicle: carboxymethylcellulose (CMC) 100 % of control | [5] 98 % of control

CCCCN(C)N=Nc1ccc(S(N)(=O)=O)cc1
inactive: dose: 30.0 mg/kg/injection, schedule: Q01DX Z (ip), vehicle: carboxymethylcellulose (CMC) 92 % of control | dose: 60.0 mg/kg/injection, schedule: Q01DX Z (ip), vehicle: carboxymethylcellulose (CMC) 92 % of control | dose: 90.0 mg/kg/injection, schedule: Q01DX Z (ip), vehicle: carboxymethylcellulose (CMC) 105 % of control

Nc1c2ccccc2cc2ccccc12
inactive: dose: 50.0 mg/kg/injection, schedule: Q01DX009 (ip), vehicle: saline with Tween-80 91 % of control | [6] 97 % of control | [7] 96 % of control and 112 % of control | [8] 110 % of control | [9] 91 % of control and 97 % of control | [10] 88 % of control

NC(N)=N/N=C(\C=N\N=C(N)N)c1ccc(-c2ccc(C(/C=N/N=C(N)N)=N\N=C(N)N)cc2)cc1
inactive: dose: 15.0 mg/kg/injection, schedule: Q01DX Z (oral), vehicle: saline 102 % of control | dose: 30.0 mg/kg/injection, schedule: Q01DX Z (oral), vehicle: saline 96 % of control | dose: 60.0 mg/kg/injection, schedule: Q01DX Z (oral), vehicle: saline 98 % of control | dose: 120.0 mg/kg/injection, schedule: Q01DX Z (oral), vehicle: saline 100 % of control

CC1=C(CCCO)/C(=N/Nc2ccc([N+](=O)[O-])cc2[N+](=O)[O-])CCC1
inactive: dose: 25.0 mg/kg/injection, schedule: Q04DX002 (ip), vehicle: saline with Tween-80 97 % of control | dose: 100.0 mg/kg/injection, schedule: Q01DX001 (ip), vehicle: saline with Tween-80 105 % of control | dose: 200.0 mg/kg/injection, schedule: Q01DX001 (ip), vehicle: saline with Tween-80 87 % of control | dose: 400.0 mg/kg/injection, schedule: Q01DX001 (ip), vehicle: saline with Tween-80 92 % of control

Cc1ccc(NC(=O)c2cc([N+](=O)[O-])cc([N+](=O)[O-])c2)c(C)c1
inactive: [11] 94 % of control | [12] 94 % of control | [13] 91 % of control

Oc1ccccc1C=Nc1ccc(Cc2ccc(N=Cc3ccccc3O)cc2)cc1
inactive: [14] 96 % of control | dose: 150.0 mg/kg/injection, schedule: Q04DX003 (ip), vehicle: other 104 % of control | [15] 90 % of control | dose: 300.0 mg/kg/injection, schedule: Q04DX003 (ip), vehicle: other 86 % of control | [16] 90 % of control

CC(=O)Nc1ccc(S(=O)(=O)Cl)cc1Cl
inactive: dose: 75.0 mg/kg/injection, schedule: Q01DX001 (ip), vehicle: saline 96 % of control | dose: 150.0 mg/kg/injection, schedule: Q01DX001 (ip), vehicle: saline 98 % of control | dose: 300.0 mg/kg/injection, schedule: Q01DX001 (ip), vehicle: saline 99 % of control

NOC(=O)c1ccc([N+](=O)[O-])cc1
inactive: [11] 94 % of control | [12] 94 % of control | [13] 94 % of control

N#Cc1ccccc1NN=Nc1ccccc1-c1nc(N)nc(N)n1
inactive: [17] 97 % of control | [18] 103 % of control

S=C=Nc1cccc2c(N=C=S)cccc12
inactive: [19] 98 % of control | [14] 98 % of control | [15] 110 % of control | [16] 119 % of control

O=C(CI)Nc1ccc(Br)cc1
inactive: dose: 6.25 mg/kg/injection, schedule: Q01DX009 (ip), vehicle: Klucel (hydroxypropylcellulose) (HPC) 86 % of control | dose: 12.5 mg/kg/injection, schedule: Q01DX009 (ip), vehicle: Klucel (hydroxypropylcellulose) (HPC) 91 % of control | dose: 25.0 mg/kg/injection, schedule: Q01DX009 (ip), vehicle: Klucel (hydroxypropylcellulose) (HPC) 86 % of control | dose: 35.0 mg/kg/injection, schedule: Q01DX009 (ip), vehicle: Klucel (hydroxypropylcellulose) (HPC) 98 % of control

NC(Cc1ccccc1)C(=O)NCC(=O)NCC(=O)O (stereo not drawn) (H-[ξF]-Gly-Gly-OH)
inactive: [6] 107 % of control | [7] 102 % of control | [8] 91 % of control | [9] 104 % of control | dose: 400.0 mg/kg/injection, schedule: Q01DX009 (ip), vehicle: saline with Tween-80 89 % of control | [10] 98 % of control

O=C(O)C1CCC(C(=O)O)CC1 (configuration not stated)
inactive: dose: 50.0 mg/kg/injection, schedule: Q01DX001 (ip), vehicle: carboxymethylcellulose (CMC) 101 % of control | [4] 88 % of control | [5] 98 % of control

CC1CN(Cc2ccccc2)CC(C)N1C(=O)c1ccccc1 (configuration not stated)
inactive: dose: 100.0 mg/kg/injection, schedule: Q01DX009 (ip), vehicle: water 95 % of control | dose: 100.0 mg/kg/injection, schedule: Q04DX003 (ip), vehicle: water 109 % of control | dose: 200.0 mg/kg/injection, schedule: Q01DX009 (ip), vehicle: water 93 % of control | dose: 200.0 mg/kg/injection, schedule: Q04DX003 (ip), vehicle: water 113 % of control | dose: 400.0 mg/kg/injection, schedule: Q01DX009 (ip), vehicle: water 104 % of control | dose: 400.0 mg/kg/injection, schedule: Q04DX003 (ip), vehicle: water 110 % of control

Nc1nc(Cl)[nH]c1-c1ncn[nH]1
inactive: [14] 92 % of control | [15] 106 % of control

O=[N+]([O-])c1cccc(C=Nc2cc(Cl)ccc2O)c1
inactive: [1] 95 % of control and 86 % of control | [2] 96 % of control and 97 % of control | [3] 100 % of control and 91 % of control

Cc1c[n+](=O)c(C)cn1[O-]
inactive: [14] 97 % of control | [15] 100 % of control | [16] 103 % of control

COc1ccc2c(c1)c(CC(=O)O)c(C)n2C(=O)c1ccc(Cl)cc1
inactive: [19] 88 % of control | [14] 95 % of control | [15] 95 % of control | [16] 93 % of control

CN1CCN(C2CCCc3ccccc3C2O)CC1 (configuration not stated)
inactive: dose: 5.0 mg/kg/injection, schedule: Q01DX001 (ip), vehicle: saline 109 % of control | dose: 10.0 mg/kg/injection, schedule: Q01DX001 (ip), vehicle: saline 105 % of control | dose: 20.0 mg/kg/injection, schedule: Q01DX001 (ip), vehicle: saline 103 % of control | dose: 40.0 mg/kg/injection, schedule: Q01DX001 (ip), vehicle: saline 103 % of control

O=C(C=C(C(F)(F)F)C(F)(F)F)c1cccs1
inactive: dose: 3.12 mg/kg/injection, schedule: Q01DX009 (ip), vehicle: saline 101 % of control | dose: 6.25 mg/kg/injection, schedule: Q01DX009 (ip), vehicle: saline 101 % of control | dose: 12.5 mg/kg/injection, schedule: Q01DX009 (ip), vehicle: saline 101 % of control | dose: 12.5 mg/kg/injection, schedule: Q04DX003 (ip), vehicle: saline 93 % of control | dose: 25.0 mg/kg/injection, schedule: Q01DX009 (ip), vehicle: saline 110 % of control | [17] 97 % of control | [18] 93 % of control | dose: 100.0 mg/kg/injection, schedule: Q04DX003 (ip), vehicle: saline 98 % of control

COc1ncnc2c1ccn2C1OC(CO)C(O)C1O (configuration not stated)
inactive: dose: 25.0 mg/kg/injection, schedule: Q01DX001 (ip), vehicle: saline 86 % of control | [19] 101 % of control | [14] 101 % of control

CC(=O)Nc1ccc2c(c1)C(NC(=O)/C=C\C(=O)O)c1ccccc1-2 (configuration not stated)
inactive: [7] 111 % of control | [9] 98 % of control | [10] 107 % of control
